Measurements published in the supplement of paper PMC10307832.

Assays:
Assay in all cases: relative viability (nuclei count vs DMSO), 5 days (fraction); higher = more cells survive
[1] = test system: ABC-1
Outline: (§1)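 Each reported value is a median over duplicate plates. It expresses relative viability: treated-well nuclei count divided by vehicle-well nuclei count. Lung cancer cell lines in 1536-well plates were dosed by pin tool a day after seeding, alone with one drug or with a fixed anchor-drug dose plus five library-drug doses (not always all listed) in √10 steps, and nuclei were counted after 5 days.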

[2] = test system: A-427
Outline: as §1

[3] = test system: COR-L23
Outline: as §1

[4] = test system: PC-3 [JPC-3]
Outline: as §1

[5] = test system: LK-2
Outline: as §1

[6] = test system: NCI-H2170
Outline: as §1

[7] = test system: NCI-H1993
Outline: as §1

[8] = test system: LU99A
Outline: as §1

[9] = test system: SK-MES-1
Outline: as §1

[10] = test system: NCI-H727
Outline: as §1

[11] = test system: NCI-H3122
Outline: as §1

[12] = test system: NCI-H596
Outline: as §1

[13] = test system: NCI-H2228
Outline: as §1

[14] = test system: LXF-289
Outline: as §1

[15] = test system: NCI-H1793
Outline: as §1

[16] = test system: NCI-H2009
Outline: as §1

[17] = test system: SW 900
Outline: as §1

[18] = test system: SW 1573
Outline: as §1

[19] = test system: EMC-BAC-2
Outline: as §1

[20] = test system: HARA
Outline: as §1

[21] = test system: HOP-62
Outline: as §1

[22] = test system: SK-LU-1
Outline: as §1

[23] = test system: NCI-H1944
Outline: as §1

C[C@@H]1CN(CC(=O)Nc2ccc3c(c2)Cc2cccc(-c4cc(=O)cc(N5CCOCC5)o4)c2S3)C[C@H](C)O1 + O=C(CCCCCCC(=O)Nc1ccccc1)NO [Vorinostat] (partner 1 µM)
relative viability ([1]; first compound 0.04 µM): 0.917
relative viability ([1]; first compound 0.1265 µM): 1.14
relative viability ([1]; first compound 0.4 µM): 1.23
relative viability ([1]; first compound 4 µM): 1.27
relative viability ([2]; first compound 0.04 µM): 0.853
relative viability ([2]; first compound 0.1265 µM): 0.92
relative viability ([2]; first compound 0.4 µM): 0.908
relative viability ([2]; first compound 4 µM): 0.779
relative viability ([3]; first compound 0.04 µM): 0.433
relative viability ([3]; first compound 0.1265 µM): 0.451
relative viability ([3]; first compound 0.4 µM): 0.473
relative viability ([3]; first compound 4 µM): 0.333
relative viability ([4]; first compound 0.04 µM): 0.822
relative viability ([4]; first compound 0.1265 µM): 0.792
relative viability ([4]; first compound 0.4 µM): 0.821
relative viability ([4]; first compound 4 µM): 0.821
relative viability ([5]; first compound 0.04 µM): 0.314
relative viability ([5]; first compound 0.1265 µM): 0.309
relative viability ([5]; first compound 0.4 µM): 0.254
relative viability ([5]; first compound 4 µM): 0.298
relative viability ([6]; first compound 0.04 µM): 0.857
relative viability ([6]; first compound 0.1265 µM): 0.811
relative viability ([6]; first compound 0.4 µM): 0.798
relative viability ([6]; first compound 4 µM): 0.742
relative viability ([7]; first compound 0.04 µM): 0.911
relative viability ([7]; first compound 0.1265 µM): 0.78
relative viability ([7]; first compound 0.4 µM): 0.626
relative viability ([7]; first compound 4 µM): 0.735
relative viability ([8]; first compound 0.04 µM): 0.444
relative viability ([8]; first compound 0.1265 µM): 0.582
relative viability ([8]; first compound 0.4 µM): 0.544
relative viability ([8]; first compound 4 µM): 0.595
relative viability ([9]; first compound 0.04 µM): 1.19
relative viability ([9]; first compound 0.1265 µM): 1.07
relative viability ([9]; first compound 0.4 µM): 1.01
relative viability ([9]; first compound 4 µM): 0.855
relative viability ([10]; first compound 0.04 µM): 1.03
relative viability ([10]; first compound 0.1265 µM): 1.17
relative viability ([10]; first compound 0.4 µM): 1.15
relative viability ([10]; first compound 4 µM): 1.13
relative viability ([11]; first compound 0.04 µM): 1.01
relative viability ([11]; first compound 0.1265 µM): 0.84
relative viability ([11]; first compound 0.4 µM): 1
relative viability ([11]; first compound 4 µM): 1.29
relative viability ([12]; first compound 0.04 µM): 0.627
relative viability ([12]; first compound 0.1265 µM): 0.707
relative viability ([12]; first compound 0.4 µM): 0.642
relative viability ([12]; first compound 4 µM): 0.567
relative viability ([13]; first compound 0.04 µM): 0.667
relative viability ([13]; first compound 0.1265 µM): 0.589
relative viability ([13]; first compound 0.4 µM): 0.852
relative viability ([13]; first compound 4 µM): 0.569
relative viability ([14]; first compound 0.04 µM): 0.534
relative viability ([14]; first compound 0.1265 µM): 0.794
relative viability ([14]; first compound 0.4 µM): 0.88
relative viability ([14]; first compound 4 µM): 0.733
relative viability ([15]; first compound 0.04 µM): 0.847
relative viability ([15]; first compound 0.1265 µM): 0.745
relative viability ([15]; first compound 0.4 µM): 0.762
relative viability ([15]; first compound 4 µM): 0.574
relative viability ([16]; first compound 0.04 µM): 0.635
relative viability ([16]; first compound 0.1265 µM): 0.772
relative viability ([16]; first compound 0.4 µM): 0.664
relative viability ([16]; first compound 4 µM): 0.497
relative viability ([17]; first compound 0.04 µM): 0.421
relative viability ([17]; first compound 0.1265 µM): 0.607
relative viability ([17]; first compound 0.4 µM): 0.534
relative viability ([17]; first compound 4 µM): 0.381
relative viability ([18]; first compound 0.04 µM): 0.551
relative viability ([18]; first compound 0.1265 µM): 0.989
relative viability ([18]; first compound 0.4 µM): 0.909
relative viability ([18]; first compound 4 µM): 0.769
relative viability ([19]; first compound 0.04 µM): 0.397
relative viability ([19]; first compound 0.1265 µM): 0.468
relative viability ([19]; first compound 0.4 µM): 0.469
relative viability ([19]; first compound 4 µM): 0.54
relative viability ([20]; first compound 0.04 µM): 0.511
relative viability ([20]; first compound 0.1265 µM): 0.61
relative viability ([20]; first compound 0.4 µM): 0.445
relative viability ([20]; first compound 4 µM): 0.436
relative viability ([21]; first compound 0.04 µM): 0.477
relative viability ([21]; first compound 0.1265 µM): 0.648
relative viability ([21]; first compound 0.4 µM): 0.687
relative viability ([21]; first compound 4 µM): 0.509
relative viability ([22]; first compound 0.04 µM): 0.765
relative viability ([22]; first compound 0.1265 µM): 0.831
relative viability ([22]; first compound 0.4 µM): 0.811
relative viability ([22]; first compound 4 µM): 0.568
relative viability ([23]; first compound 0.1265 µM): 0.716
relative viability ([23]; first compound 0.4 µM): 0.594
relative viability ([23]; first compound 4 µM): 0.637

CC(C)Oc1cc(Nc2nc(N[C@@H](C)c3ccc(F)cn3)ncc2Cl)n[nH]1 [AZ23] + COc1cc2c(Oc3ccc(NC(=O)C4(C(=O)Nc5ccc(F)cc5)CC4)cc3F)ccnc2cc1OCCCN1CCOCC1 [Foretinib] (partner 0.25 µM)
relative viability ([1]; first compound 0.01 µM): 1.03
relative viability ([1]; first compound 0.03162 µM): 1.04
relative viability ([1]; first compound 0.3162 µM): 1.02
relative viability ([2]; first compound 0.01 µM): 1
relative viability ([2]; first compound 0.03162 µM): 1.05
relative viability ([2]; first compound 0.3162 µM): 1.07
relative viability ([3]; first compound 0.01 µM): 1.09
relative viability ([3]; first compound 0.03162 µM): 1.02
relative viability ([3]; first compound 0.3162 µM): 1.11
relative viability ([4]; first compound 0.01 µM): 1.23
relative viability ([4]; first compound 0.03162 µM): 1.14
relative viability ([4]; first compound 0.3162 µM): 0.996
relative viability ([5]; first compound 0.01 µM): 1.15
relative viability ([5]; first compound 0.03162 µM): 1.38
relative viability ([5]; first compound 0.3162 µM): 0.706
relative viability ([6]; first compound 0.01 µM): 1.16
relative viability ([6]; first compound 0.03162 µM): 0.98
relative viability ([6]; first compound 0.3162 µM): 0.849
relative viability ([7]; first compound 0.01 µM): 0.66
relative viability ([7]; first compound 0.03162 µM): 0.725
relative viability ([7]; first compound 0.3162 µM): 0.753
relative viability ([8]; first compound 0.01 µM): 0.799
relative viability ([8]; first compound 0.03162 µM): 0.846
relative viability ([8]; first compound 0.3162 µM): 0.872
relative viability ([9]; first compound 0.01 µM): 0.761
relative viability ([9]; first compound 0.03162 µM): 1.05
relative viability ([9]; first compound 0.3162 µM): 0.977
relative viability ([10]; first compound 0.01 µM): 0.789
relative viability ([10]; first compound 0.03162 µM): 0.852
relative viability ([10]; first compound 0.3162 µM): 1.1
relative viability ([11]; first compound 0.01 µM): 1.15
relative viability ([11]; first compound 0.03162 µM): 0.918
relative viability ([11]; first compound 0.3162 µM): 0.981
relative viability ([12]; first compound 0.01 µM): 0.89
relative viability ([12]; first compound 0.03162 µM): 0.877
relative viability ([12]; first compound 0.3162 µM): 0.737
relative viability ([13]; first compound 0.01 µM): 1.06
relative viability ([13]; first compound 0.03162 µM): 1.26
relative viability ([13]; first compound 0.3162 µM): 0.875
relative viability ([14]; first compound 0.01 µM): 1.14
relative viability ([14]; first compound 0.03162 µM): 0.977
relative viability ([14]; first compound 0.3162 µM): 0.949
relative viability ([15]; first compound 0.01 µM): 0.879
relative viability ([15]; first compound 0.03162 µM): 0.859
relative viability ([15]; first compound 0.3162 µM): 0.713
relative viability ([16]; first compound 0.01 µM): 1.23
relative viability ([16]; first compound 0.03162 µM): 1.26
relative viability ([16]; first compound 0.3162 µM): 1.23
relative viability ([17]; first compound 0.01 µM): 1.04
relative viability ([17]; first compound 0.03162 µM): 0.844
relative viability ([17]; first compound 0.3162 µM): 0.775
relative viability ([18]; first compound 0.01 µM): 1.28
relative viability ([18]; first compound 0.03162 µM): 1.1
relative viability ([18]; first compound 0.3162 µM): 0.562
relative viability ([19]; first compound 0.01 µM): 1.12
relative viability ([19]; first compound 0.03162 µM): 1.06
relative viability ([19]; first compound 0.3162 µM): 0.989
relative viability ([20]; first compound 0.03162 µM): 1.04
relative viability ([20]; first compound 0.3162 µM): 0.783
relative viability ([21]; first compound 0.01 µM): 1.33
relative viability ([21]; first compound 0.03162 µM): 1.15
relative viability ([21]; first compound 0.3162 µM): 1.3
relative viability ([22]; first compound 0.03162 µM): 0.969
relative viability ([22]; first compound 0.3162 µM): 0.821
relative viability ([23]; first compound 0.01 µM): 0.811
relative viability ([23]; first compound 0.03162 µM): 0.954
relative viability ([23]; first compound 0.3162 µM): 0.864
